Data as given in paper PMC2483479 (Acta Crystallographica Section D: Biological Crystallography, 2007).

T1: E. coli KAS I (Escherichia coli, UniProt P0A953)
T1 sequence (P0A953 1-406): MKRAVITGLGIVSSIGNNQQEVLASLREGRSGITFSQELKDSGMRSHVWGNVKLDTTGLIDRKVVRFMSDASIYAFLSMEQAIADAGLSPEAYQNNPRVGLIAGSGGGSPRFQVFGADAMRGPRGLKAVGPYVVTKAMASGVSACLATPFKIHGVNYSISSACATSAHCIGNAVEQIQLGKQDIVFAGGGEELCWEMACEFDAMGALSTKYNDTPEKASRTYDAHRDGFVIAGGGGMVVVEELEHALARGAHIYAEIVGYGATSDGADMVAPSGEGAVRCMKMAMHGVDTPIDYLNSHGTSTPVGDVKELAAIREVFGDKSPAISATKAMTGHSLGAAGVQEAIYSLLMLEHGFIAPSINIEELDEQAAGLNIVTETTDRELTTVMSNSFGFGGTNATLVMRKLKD


What was measured:
[1] = biological target: T1, E. coli KAS I; assay: X-ray crystal structure; format: binding; conditions: 0.3 mM thiolactomycin, 2.3 M ammonium sulfate, 0.1 M Tris-HCl pH 7.5, 3% DMSO; active site
[2] = biological target: the molecule itself; assay: crystal structure

Molecule | X-ray crystal structure (crystal soaking) [1] | binding result [2]
C=C/C(C)=C/[C@@]1(C)SC(=O)C(C)=C1O [thiolactomycin] | clearly confirmed binding of thiolactomycin at the active site | 
Escherichia coli β-ketoacyl-ACP synthase I (KAS I) (enzyme) MKRAVITGLGIVSSIGNNQQEVLASLREGRSGITFSQELKDSGMRSHVWGNVKLDTTGLIDRKVVRFMSDASIYAFLSMEQAIADAGLSPEAYQNNPRVGLIAGSGGGSPRFQVFGADAMRGPRGLKAVGPYVVTKAMASGVSACLATPFKIHGVNYSISSACATSAHCIGNAVEQIQLGKQDIVFAGGGEELCWEMACEFDAMGALSTKYNDTPEKASRTYDAHRDGFVIAGGGGMVVVEELEHALARGAHIYAEIVGYGATSDGADMVAPSGEGAVRCMKMAMHGVDTPIDYLNSHGTSTPVGDVKELAAIREVFGDKSPAISATKAMTGHSLGAAGVQEAIYSLLMLEHGFIAPSINIEELDEQAAGLNIVTETTDRELTTVMSNSFGFGGTNATLVMRKLKD |  | binds
